Assay results: ChEMBL document CHEMBL1135130, “Substituted tetrahydrofuroyl-1-phenylalanine derivatives as potent and specific VLA-4 antagonists” (Bioorg Med Chem Lett, 2002)

Key:
[1] = biological target: Integrin alpha-4/beta-7 (Homo sapiens) (UniProt P13612+P26010); assay: Selectivity for alpha4-beta7 to that of alpha4-beta1; type: protein-complex assay
[2] = biological target: T1, Integrin alpha-4/beta-1 (Homo sapiens, UniProt P05556+P13612); assay: Inhibition of alpha4-beta1 (very late) antigen binding with VCAM-1 immunoglobulin plus 5% human plasma; type: cell-free
T1 sequence (P05556 whole entry, one chain of several): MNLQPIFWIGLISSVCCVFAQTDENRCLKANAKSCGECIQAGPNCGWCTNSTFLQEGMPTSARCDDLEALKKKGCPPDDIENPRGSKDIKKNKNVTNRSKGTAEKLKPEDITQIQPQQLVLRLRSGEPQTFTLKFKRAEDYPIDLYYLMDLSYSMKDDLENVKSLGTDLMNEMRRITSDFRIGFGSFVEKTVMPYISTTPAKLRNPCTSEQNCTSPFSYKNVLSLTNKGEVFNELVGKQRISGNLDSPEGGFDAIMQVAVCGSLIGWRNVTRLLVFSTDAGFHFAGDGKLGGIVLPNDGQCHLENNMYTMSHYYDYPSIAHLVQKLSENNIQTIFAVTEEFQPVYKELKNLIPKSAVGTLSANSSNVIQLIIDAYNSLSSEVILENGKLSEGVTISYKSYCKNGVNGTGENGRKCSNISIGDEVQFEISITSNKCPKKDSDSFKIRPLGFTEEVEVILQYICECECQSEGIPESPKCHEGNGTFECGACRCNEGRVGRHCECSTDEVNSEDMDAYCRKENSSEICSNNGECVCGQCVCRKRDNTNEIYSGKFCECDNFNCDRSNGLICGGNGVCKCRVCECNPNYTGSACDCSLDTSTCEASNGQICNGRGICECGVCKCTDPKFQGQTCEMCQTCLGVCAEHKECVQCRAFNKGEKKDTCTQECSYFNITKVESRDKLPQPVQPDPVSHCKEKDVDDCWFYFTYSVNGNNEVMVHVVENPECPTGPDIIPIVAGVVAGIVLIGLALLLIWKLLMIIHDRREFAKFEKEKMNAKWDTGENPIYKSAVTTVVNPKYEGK

[3] = biological target: T2, Integrin alpha-4/beta-7 (Homo sapiens, UniProt P13612+P26010); assay: Inhibition of alpha4-beta7 antigen with MAdCAM immunoglobulin; type: protein-complex assay
T2 sequence (P13612 whole entry): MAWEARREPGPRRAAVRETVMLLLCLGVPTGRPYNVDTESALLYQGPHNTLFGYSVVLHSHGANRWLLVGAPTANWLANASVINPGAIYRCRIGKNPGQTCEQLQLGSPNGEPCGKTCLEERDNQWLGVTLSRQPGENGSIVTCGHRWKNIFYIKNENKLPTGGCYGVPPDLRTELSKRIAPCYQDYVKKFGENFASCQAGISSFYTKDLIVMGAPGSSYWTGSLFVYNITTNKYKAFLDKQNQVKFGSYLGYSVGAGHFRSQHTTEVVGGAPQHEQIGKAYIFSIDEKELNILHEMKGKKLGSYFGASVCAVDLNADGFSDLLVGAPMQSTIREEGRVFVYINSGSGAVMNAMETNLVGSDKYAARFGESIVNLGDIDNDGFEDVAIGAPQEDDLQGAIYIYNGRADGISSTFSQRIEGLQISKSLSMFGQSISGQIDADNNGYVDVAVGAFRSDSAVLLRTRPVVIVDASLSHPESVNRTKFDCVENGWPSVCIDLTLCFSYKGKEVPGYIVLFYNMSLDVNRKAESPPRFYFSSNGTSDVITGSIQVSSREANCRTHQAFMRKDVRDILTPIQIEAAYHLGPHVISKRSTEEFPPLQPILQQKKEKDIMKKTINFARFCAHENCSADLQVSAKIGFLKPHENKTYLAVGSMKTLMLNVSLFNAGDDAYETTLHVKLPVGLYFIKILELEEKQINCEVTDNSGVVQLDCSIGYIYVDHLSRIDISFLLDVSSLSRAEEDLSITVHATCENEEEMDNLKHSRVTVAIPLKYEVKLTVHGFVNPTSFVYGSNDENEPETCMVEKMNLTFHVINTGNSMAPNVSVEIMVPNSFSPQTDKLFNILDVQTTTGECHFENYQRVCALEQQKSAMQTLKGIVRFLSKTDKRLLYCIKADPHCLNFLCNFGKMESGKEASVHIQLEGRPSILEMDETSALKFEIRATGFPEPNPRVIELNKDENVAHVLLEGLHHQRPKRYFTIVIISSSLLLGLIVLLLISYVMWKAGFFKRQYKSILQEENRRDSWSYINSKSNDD
T2 sequence (P26010 whole entry): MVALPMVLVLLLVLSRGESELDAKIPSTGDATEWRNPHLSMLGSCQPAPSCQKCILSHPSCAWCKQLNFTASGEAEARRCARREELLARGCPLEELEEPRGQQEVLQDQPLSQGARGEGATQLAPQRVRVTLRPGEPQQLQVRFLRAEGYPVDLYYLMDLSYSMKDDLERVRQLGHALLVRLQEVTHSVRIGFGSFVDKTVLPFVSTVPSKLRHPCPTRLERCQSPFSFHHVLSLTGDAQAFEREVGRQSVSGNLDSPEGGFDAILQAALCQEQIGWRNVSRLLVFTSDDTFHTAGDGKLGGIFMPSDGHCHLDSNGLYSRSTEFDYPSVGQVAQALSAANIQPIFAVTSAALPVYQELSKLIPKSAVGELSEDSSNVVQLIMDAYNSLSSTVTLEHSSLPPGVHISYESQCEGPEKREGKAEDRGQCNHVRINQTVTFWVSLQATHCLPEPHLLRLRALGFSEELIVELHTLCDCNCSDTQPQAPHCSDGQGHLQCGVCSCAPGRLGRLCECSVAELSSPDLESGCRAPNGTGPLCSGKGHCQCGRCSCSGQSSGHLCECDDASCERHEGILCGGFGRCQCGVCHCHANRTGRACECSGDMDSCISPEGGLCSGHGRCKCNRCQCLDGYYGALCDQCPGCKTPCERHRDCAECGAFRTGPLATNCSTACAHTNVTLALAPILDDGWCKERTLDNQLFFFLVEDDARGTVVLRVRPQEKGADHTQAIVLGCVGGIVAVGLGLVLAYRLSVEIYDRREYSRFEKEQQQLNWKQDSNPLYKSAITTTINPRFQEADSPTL

[4] = biological target: T1, Integrin alpha-4/beta-1; assay: Inhibition of alpha4-beta1 (very late) antigen binding with VCAM-1 immunoglobulin; type: protein-complex assay

| SMILES | Ratio [1] | IC50 [2] | IC50 [3] | IC50 [4] |
| --- | --- | --- | --- | --- |
| COc1ccccc1-c1ccc(C[C@H](NC(=O)[C@@]2(c3ccc(C(C)(C)C)cc3)CCCO2)C(=O)O)cc1 | 55 | 29 nM | 99.5 nM | 1.8 nM |
| COc1ccccc1-c1ccc(C[C@H](NC(=O)[C@@]2(c3ccc(Cl)cc3)CCCO2)C(=O)O)cc1 | 67 | 46 nM | 275 nM | 4.09 nM |
| COc1ccccc1-c1ccc(C[C@H](NC(=O)[C@@]2(c3ccc(C)c(C)c3)CCCO2)C(=O)O)cc1 | 60 | 343 nM | 374 nM | 6.18 nM |
| COc1ccccc1-c1ccc(C[C@H](NC(=O)[C@@]2(C)CCCO2)C(=O)O)cc1 | 12 | 60.6 nM | 45.3 nM | 3.9 nM |
| COc1ccccc1-c1ccc(C[C@H](NC(=O)[C@@]2(C(=O)N3CCN(C)CC3)CCCO2)C(=O)O)cc1 | 39 | 1 nM | 23.2 nM | 0.59 nM |
| COc1ccccc1-c1ccc(C[C@H](NC(=O)[C@@]2(c3ccc(Br)cc3)CCCO2)C(=O)O)cc1 | 64 | 53 nM | 232 nM | 3.62 nM |
| COc1ccc(CNC2CC(C)O[C@@]2(C)C(=O)N[C@@H](Cc2ccc(-c3c(OC)cccc3OC)cc2)C(=O)O)cc1 (some centres not stated) | 225 | 14.9 nM | 733 nM | 3.4 nM |
| COCCCC[C@]1(C(=O)N[C@@H](Cc2ccc(-c3c(OC)cccc3OC)cc2)C(=O)O)CCCO1 | 35 | 1.27 nM | 22 nM | 0.62 nM |
| COc1cc(OC)cc([C@]2(C(=O)N[C@@H](Cc3ccc(-c4c(OC)cccc4OC)cc3)C(=O)O)CCCO2)c1 |  | 5.77 nM |  | 1.48 nM |
| COc1cccc(OC)c1-c1ccc(C[C@H](NC(=O)[C@@]2(c3cccc(N)c3)CCCO2)C(=O)O)cc1 | 29 | 5.63 nM | 26.6 nM | 0.92 nM |
| COc1cccc(OC)c1-c1ccc(C[C@H](NC(=O)[C@@]2(c3cccc([N+](=O)[O-])c3)CCCO2)C(=O)O)cc1 | 85 | 0.95 nM | 19.6 nM | 0.23 nM |
| COc1ccccc1-c1ccc(C[C@H](NC(=O)[C@@]2(c3ccc(F)cc3)CCCO2)C(=O)O)cc1 | 11 | 48 nM | 45.7 nM | 4.3 nM |
| COc1cccc(OC)c1-c1ccc(C[C@H](NC(=O)[C@@]2(c3nc4ccccc4o3)CCCO2)C(=O)O)cc1 | 897 | 2.4 nM | 377 nM | 0.42 nM |
| COc1ccccc1-c1ccc(C[C@H](NC(=O)[C@@]2(c3cccc(C(F)(F)F)c3)CCCO2)C(=O)O)cc1 | 70 | 290 nM | 327 nM | 4.65 nM |
| COc1ccccc1-c1ccc(C[C@H](NC(=O)[C@@]2(c3ccccc3)CCCO2)C(=O)O)cc1 | 26 |  | 56.4 nM | 2.2 nM |
| COc1cccc(OC)c1-c1ccc(C[C@H](NC(=O)[C@@]2(c3ccc(Cl)cc3)CCCO2)C(=O)O)cc1 | 95 | 4.75 nM | 52.2 nM | 0.55 nM |
| COc1ccccc1-c1ccc(C[C@H](NC(=O)[C@@]2(C(=O)N3CCCC3)CCCO2)C(=O)O)cc1 | 17 | 4.42 nM | 22.9 nM | 1.33 nM |
| COc1ccccc1-c1ccc(C[C@H](NC(=O)[C@@]2(c3cc(C(F)(F)F)cc(C(F)(F)F)c3)CCCO2)C(=O)O)cc1 | 108 | 1100 nM | 499 nM | 4.62 nM |
| COc1cccc(OC)c1-c1ccc(C[C@H](NC(=O)[C@@]2(c3ccc(Cl)c([N+](=O)[O-])c3)CCCO2)C(=O)O)cc1 | 97 | 2.41 nM | 45.6 nM | 0.47 nM |
| COc1ccccc1-c1ccc(C[C@H](NC(=O)[C@@]2(c3ccc(C(F)(F)F)cc3)CCCO2)C(=O)O)cc1 | 95 | 120 nM | 504 nM | 5.31 nM |
| COc1ccccc1-c1ccc(C[C@H](NC(=O)[C@@]2(C(=O)N3CCOCC3)CCCO2)C(=O)O)cc1 | 16 | 1 nM | 8.49 nM | 0.54 nM |
| CCOC(=O)[C@]1(C(=O)N[C@@H](Cc2ccc(-c3ccccc3OC)cc2)C(=O)O)CCCO1 | 13 | 19 nM | 51.1 nM | 4.06 nM |
| COc1cccc(OC)c1-c1ccc(C[C@H](NC(=O)[C@]2(C)OC(C)CC2=O)C(=O)O)cc1 (some centres not stated) | 35 | 1.32 nM | 24.5 nM | 0.7 nM |
| COc1cccc(OC)c1-c1ccc(C[C@H](NC(=O)[C@]2(C)OC(C)CC2N)C(=O)O)cc1 (some centres not stated) | 57 |  | 149 nM | 2.6 nM |

Next, values leading:

| Ratio [1] | IC50 [2] | IC50 [3] | IC50 [4] | SMILES |
| --- | --- | --- | --- | --- |
| 5 | 19.5 nM | 80 nM | 15.5 nM | COc1cccc(OC)c1-c1ccc(C[C@H](NC(=O)[C@@]2(CCN(C)C)CCCO2)C(=O)O)cc1 |
| 10 | 7.59 nM | 16.3 nM | 1.56 nM | COc1cccc(OC)c1-c1ccc(C[C@H](NC(=O)[C@@]2(CCO)CCCO2)C(=O)O)cc1 |
| 14 | 22.9 nM | 226 nM | 16.3 nM | COc1cccc(OC)c1-c1ccc(C[C@H](NC(=O)[C@@]2(CCCCN(C)C)CCCO2)C(=O)O)cc1 |
| 9 | 7.46 nM | 6.1 nM | 0.7 nM | COc1cccc(OC)c1-c1ccc(C[C@H](NC(=O)[C@@]2(C(C)C)CCCO2)C(=O)O)cc1 |
| 47 |  | 14.5 nM | 0.31 nM | COc1cccc(OC)c1-c1ccc(C[C@H](NC(=O)[C@@]2(c3ncc(C)s3)CCCO2)C(=O)O)cc1 |
| 7 |  | 67 nM | 9.18 nM | COc1cccc(OC)c1-c1ccc(C[C@H](NC(=O)[C@@]2(CCCN(C)C)CCCO2)C(=O)O)cc1 |
| 29 | 1.46 nM | 13.8 nM | 0.48 nM | CCCC[C@]1(C(=O)N[C@@H](Cc2ccc(-c3c(OC)cccc3OC)cc2)C(=O)O)CCCO1 |
| 22 |  | 11.2 nM | 0.67 nM | COc1cccc(OC)c1-c1ccc(C[C@H](NC(=O)[C@@]2(C(=O)C(C)C)CCCO2)C(=O)O)cc1 |
| 1 | 870 nM | 245 nM | 255 nM | COc1cccc(OC)c1-c1ccc(C[C@H](NC(=O)[C@@]2(CCCCO)CCCO2)C(=O)O)cc1 |
| 40 | 1.99 nM | 16.1 nM | 0.7 nM | COCC[C@]1(C(=O)N[C@@H](Cc2ccc(-c3c(OC)cccc3OC)cc2)C(=O)O)CCCO1 |
| 19 | 4.02 nM | 22.3 nM | 1.15 nM | COc1cccc(OC)c1-c1ccc(C[C@H](NC(=O)[C@@]2(CC(C)C)CCCO2)C(=O)O)cc1 |
| 17 | 3.36 nM | 35.3 nM | 2.12 nM | COc1cccc(OC)c1-c1ccc(C[C@H](NC(=O)[C@@]2(CCCO)CCCO2)C(=O)O)cc1 |
